{
  "source": "patent US6358885B1",
  "about": "“Substituted phenylheterocyclic herbicides” (Mississippi State University, priority 1992, dated 2002)",
  "key": {"[1]": {"test_system": "peanut", "test": "Test G preemergence/postemergence greenhouse plant response rating 0 to 100", "assay_type": "in vivo, Arachis hypoagaea", "conditions": "0 to 100 scale", "source_text": "(§1) Seeds, rhizomes, or plant parts of alfalfa (Medicago ativa), annual bluegrass (Poa annua), bermudagrass (Cynodon dactylon), broadleaf signalgrass (Brachiaria plantaginea), common purslane (Portulaca oleracea), common ragweed (Ambrosia elatior), […] (Paspalum dilatatum), goosegrass (Eleusine indica), guineagrass (Panicum maximum), […] exaltata), johnsongrass (Sorghum halepense), large crabgrass (Digitaria sanguinalis), peanut (Arachis hypoagaea), pitted morningglory (Ipomoea lacunosa), purple nutsedge (Cyperus rotundus), sandbur (Cenchrus echinatus), smooth crabgrass (Digitaria ischaemum) and yellow nutsedge (Cyperus esculentus) were planted into greenhouse pots containing greenhouse planting medium. Each pot contained only one plant species. The test compound was dissolved in a non-phytotoxic solvent and applied preemergence and/or postemergence to the plants. Preemergence applications were made within one day of planting the seeds or plant parts. Postemergence applications were applied when the plants were in the two to four leaf stage (three to twenty cm). Test chemicals were dissolved in a non-phytotoxic solvent and applied preemergence and postemergence to the plants. Untreated control plants and treated plants were placed in the greenhouse and visually evaluated for injury at 13 to 21 days after herbicide application. […] A dash (-) response indicates no test result."}, "[2]": {"test_system": "soybean", "test": "Test B preemergence/postemergence greenhouse plant response rating 0 to 10", "assay_type": "in vivo, Glycine max", "conditions": "0 to 10 scale", "outline": "(§2)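 Test chemicals were sprayed onto freshly planted seed and, concurrently, onto young plants between the one and four leaf stage. After a twelve- to sixteen-day greenhouse period, each species was visually compared with untreated controls.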"}, "[3]": {"test_system": "wild oat", "test": "Test B preemergence/postemergence greenhouse plant response rating 0 to 10", "assay_type": "in vivo, Avena fatua", "conditions": "0 to 10 scale", "outline": "as §2"}, "[4]": {"test_system": "wheat", "test": "Test B preemergence/postemergence greenhouse plant response rating 0 to 10", "assay_type": "in vivo, Triticum aestivum", "conditions": "0 to 10 scale", "outline": "as §2"}, "[5]": {"test_system": "lambsquarters", "test": "Test B preemergence/postemergence greenhouse plant response rating 0 to 10", "assay_type": "in vivo, Chenopodium album", "conditions": "0 to 10 scale", "outline": "as §2"}, "[6]": {"test_system": "rice", "test": "Test B preemergence/postemergence greenhouse plant response rating 0 to 10", "assay_type": "in vivo, Oryza sativa", "conditions": "0 to 10 scale", "outline": "as §2"}, "[7]": {"test_system": "yellow nutsedge", "test": "Test G preemergence/postemergence greenhouse plant response rating 0 to 100", "assay_type": "in vivo, Cyperus esculentus", "conditions": "Rate 125 g/ha, 0 to 100 scale", "source_text": "as §1"}, "[8]": {"test_system": "wild buckwheat", "test": "Test B preemergence/postemergence greenhouse plant response rating 0 to 10", "assay_type": "in vivo, Polygonum convolvulus", "conditions": "0 to 10 scale", "outline": "as §2"}},
  "data": [
    {"smiles": "CCS(=O)(=O)Oc1cc(-c2nn3c(c2Cl)CCCC3)c(F)cc1Cl", "note": "[Compound 25]", "values": [
      {"measurement": "Plant response rating, Peanuts", "setting": "[1]; POSTEMERGENCE, Rate 125 g/ha", "value": 0},
      {"measurement": "Plant response rating, Peanuts", "setting": "[1]; POSTEMERGENCE, Rate 250 g/ha", "value": 0},
      {"measurement": "Plant response rating, Peanuts", "setting": "[1]; PREEMERGENCE, Rate 125 g/ha", "value": 0},
      {"measurement": "Plant response rating, Peanuts", "setting": "[1]; PREEMERGENCE, Rate 250 g/ha", "value": 0},
      {"measurement": "Plant response rating, Soybean", "setting": "[2]; POSTEMERGENCE, Rate 50 g/ha", "value": 8},
      {"measurement": "Plant response rating, Soybean", "setting": "[2]; POSTEMERGENCE, Rate 200 g/ha", "value": 4},
      {"measurement": "Plant response rating, Soybean", "setting": "[2]; PREEMERGENCE, Rate 50 g/ha", "value": 0},
      {"measurement": "Plant response rating, Soybean", "setting": "[2]; Rate 200 g/ha, PREEMERGENCE", "value": 0},
      {"measurement": "Plant response rating, Wild oat", "setting": "[3]; POSTEMERGENCE, Rate 50 g/ha", "value": 3},
      {"measurement": "Plant response rating, Wild oat", "setting": "[3]; POSTEMERGENCE, Rate 200 g/ha", "value": 4},
      {"measurement": "Plant response rating, Wild oat", "setting": "[3]; Rate 200 g/ha, PREEMERGENCE", "value": 4},
      {"measurement": "Plant response rating, Wheat", "setting": "[4]; POSTEMERGENCE, Rate 50 g/ha", "value": 3},
      {"measurement": "Plant response rating, Wheat", "setting": "[4]; POSTEMERGENCE, Rate 200 g/ha", "value": 4},
      {"measurement": "Plant response rating, Wheat", "setting": "[4]; PREEMERGENCE, Rate 50 g/ha", "value": 0},
      {"measurement": "Plant response rating, Wheat", "setting": "[4]; Rate 200 g/ha, PREEMERGENCE", "value": 2},
      {"measurement": "Plant response rating, Lambsquarter", "setting": "[5]; POSTEMERGENCE, Rate 50 g/ha", "value": 9},
      {"measurement": "Plant response rating, Lambsquarter", "setting": "[5]; POSTEMERGENCE, Rate 200 g/ha", "value": 10},
      {"measurement": "Plant response rating, Lambsquarter", "setting": "[5]; PREEMERGENCE, Rate 50 g/ha", "value": 9},
      {"measurement": "Plant response rating, Lambsquarter", "setting": "[5]; Rate 200 g/ha, PREEMERGENCE", "value": 10},
      {"measurement": "Plant response rating, Rice", "setting": "[6]; POSTEMERGENCE, Rate 50 g/ha", "value": 4},
      {"measurement": "Plant response rating, Rice", "setting": "[6]; POSTEMERGENCE, Rate 200 g/ha", "value": 9},
      {"measurement": "Plant response rating, Rice", "setting": "[6]; PREEMERGENCE, Rate 50 g/ha", "value": 0},
      {"measurement": "Plant response rating, Rice", "setting": "[6]; Rate 200 g/ha, PREEMERGENCE", "value": 0},
      {"measurement": "Plant response rating, Yellow Nutsedge", "setting": "[7]; POSTEMERGENCE", "value": 0},
      {"measurement": "Plant response rating, Yellow Nutsedge", "setting": "[7]; PREEMERGENCE", "value": 0},
      {"measurement": "Plant response rating, Wild buckwheat", "setting": "[8]; POSTEMERGENCE, Rate 50 g/ha", "value": 10},
      {"measurement": "Plant response rating, Wild buckwheat", "setting": "[8]; POSTEMERGENCE, Rate 200 g/ha", "value": 10},
      {"measurement": "Plant response rating, Wild buckwheat", "setting": "[8]; PREEMERGENCE, Rate 50 g/ha", "value": 8},
      {"measurement": "Plant response rating, Wild buckwheat", "setting": "[8]; Rate 200 g/ha, PREEMERGENCE", "value": 10}
    ]}
  ]
}
